Assay results as given in patent US11414384B2, “P300/CBP hat inhibitors” (Constellation Pharmaceuticals, Inc., priority 2018, dated 2022).

Columns and labels:
full length p300 = full length p300 (Homo sapiens (Human), UniProt Q09472); assay: full length p300 SPA assay; assay type: biochemical; settings: average of at least 2 replicate titrations, read-out: FL P300 IC50
Method: Reactions were initiated with 12.5 μL 2 μM biotinylated H3(1-21) peptide (New England Peptide) and run for 1 hr at RT, then quenched with 20 μL stop solution (200 mM Tris pH 8.0, 200 mM EDTA, 2M NaCl, 160 μM anacardic acid). 35 μL of the reaction volume was transferred to a 384-well streptavidin FlashPlate (PerkinElmer) using a Bravo liquid handler (Velocity 11) and incubated for 1.5 hr at RT. Plates were aspirated, washed with 95 μL wash buffer (15 mM Tris pH 8.5, 0.069 μM Brij-35), aspirated, sealed, and scintillation counts read on a Topcount (PerkinElmer). Data were analyzed in Genedata to determine inhibitor IC50 values.
The full length p300 SPA assay was run following the same protocol as p300 HAT SPA assay, but used 6 nM purified full length p300 (purchased from Active Motif) in place of the purified p300-HAT domain.

[1] = target: p300 HAT domain (residues 1287-1666) (Homo sapiens (Human), UniProt Q09472); assay: p300 HAT SPA assay (scintillation proximity assay, acetylation of biotinylated H3(1-21) peptide); assay type: biochemical; settings: p300 HAT domain; average of at least 2 replicate titrations; read-out: P300 HAT SPA IC50
Chain of p300 HAT domain (residues 1287-1666) (Q09472 1287-1666): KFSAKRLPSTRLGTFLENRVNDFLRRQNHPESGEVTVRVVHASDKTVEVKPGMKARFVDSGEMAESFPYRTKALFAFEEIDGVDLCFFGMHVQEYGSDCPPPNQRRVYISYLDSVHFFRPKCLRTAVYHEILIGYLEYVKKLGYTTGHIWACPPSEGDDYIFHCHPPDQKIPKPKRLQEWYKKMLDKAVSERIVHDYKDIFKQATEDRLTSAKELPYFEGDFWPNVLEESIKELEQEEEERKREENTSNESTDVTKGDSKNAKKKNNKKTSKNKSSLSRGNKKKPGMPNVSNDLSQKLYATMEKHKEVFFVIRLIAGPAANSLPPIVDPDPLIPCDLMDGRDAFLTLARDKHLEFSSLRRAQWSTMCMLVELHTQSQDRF
In short: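 Purified p300 HAT domain reaction transferred to streptavidin plates to capture biotinylated H3(1-21) peptide, incubated 1.5 hr at RT, and read by scintillation proximity. IC50 values derived from concentration-response data.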

Chain of full length p300 (Q09472 whole entry): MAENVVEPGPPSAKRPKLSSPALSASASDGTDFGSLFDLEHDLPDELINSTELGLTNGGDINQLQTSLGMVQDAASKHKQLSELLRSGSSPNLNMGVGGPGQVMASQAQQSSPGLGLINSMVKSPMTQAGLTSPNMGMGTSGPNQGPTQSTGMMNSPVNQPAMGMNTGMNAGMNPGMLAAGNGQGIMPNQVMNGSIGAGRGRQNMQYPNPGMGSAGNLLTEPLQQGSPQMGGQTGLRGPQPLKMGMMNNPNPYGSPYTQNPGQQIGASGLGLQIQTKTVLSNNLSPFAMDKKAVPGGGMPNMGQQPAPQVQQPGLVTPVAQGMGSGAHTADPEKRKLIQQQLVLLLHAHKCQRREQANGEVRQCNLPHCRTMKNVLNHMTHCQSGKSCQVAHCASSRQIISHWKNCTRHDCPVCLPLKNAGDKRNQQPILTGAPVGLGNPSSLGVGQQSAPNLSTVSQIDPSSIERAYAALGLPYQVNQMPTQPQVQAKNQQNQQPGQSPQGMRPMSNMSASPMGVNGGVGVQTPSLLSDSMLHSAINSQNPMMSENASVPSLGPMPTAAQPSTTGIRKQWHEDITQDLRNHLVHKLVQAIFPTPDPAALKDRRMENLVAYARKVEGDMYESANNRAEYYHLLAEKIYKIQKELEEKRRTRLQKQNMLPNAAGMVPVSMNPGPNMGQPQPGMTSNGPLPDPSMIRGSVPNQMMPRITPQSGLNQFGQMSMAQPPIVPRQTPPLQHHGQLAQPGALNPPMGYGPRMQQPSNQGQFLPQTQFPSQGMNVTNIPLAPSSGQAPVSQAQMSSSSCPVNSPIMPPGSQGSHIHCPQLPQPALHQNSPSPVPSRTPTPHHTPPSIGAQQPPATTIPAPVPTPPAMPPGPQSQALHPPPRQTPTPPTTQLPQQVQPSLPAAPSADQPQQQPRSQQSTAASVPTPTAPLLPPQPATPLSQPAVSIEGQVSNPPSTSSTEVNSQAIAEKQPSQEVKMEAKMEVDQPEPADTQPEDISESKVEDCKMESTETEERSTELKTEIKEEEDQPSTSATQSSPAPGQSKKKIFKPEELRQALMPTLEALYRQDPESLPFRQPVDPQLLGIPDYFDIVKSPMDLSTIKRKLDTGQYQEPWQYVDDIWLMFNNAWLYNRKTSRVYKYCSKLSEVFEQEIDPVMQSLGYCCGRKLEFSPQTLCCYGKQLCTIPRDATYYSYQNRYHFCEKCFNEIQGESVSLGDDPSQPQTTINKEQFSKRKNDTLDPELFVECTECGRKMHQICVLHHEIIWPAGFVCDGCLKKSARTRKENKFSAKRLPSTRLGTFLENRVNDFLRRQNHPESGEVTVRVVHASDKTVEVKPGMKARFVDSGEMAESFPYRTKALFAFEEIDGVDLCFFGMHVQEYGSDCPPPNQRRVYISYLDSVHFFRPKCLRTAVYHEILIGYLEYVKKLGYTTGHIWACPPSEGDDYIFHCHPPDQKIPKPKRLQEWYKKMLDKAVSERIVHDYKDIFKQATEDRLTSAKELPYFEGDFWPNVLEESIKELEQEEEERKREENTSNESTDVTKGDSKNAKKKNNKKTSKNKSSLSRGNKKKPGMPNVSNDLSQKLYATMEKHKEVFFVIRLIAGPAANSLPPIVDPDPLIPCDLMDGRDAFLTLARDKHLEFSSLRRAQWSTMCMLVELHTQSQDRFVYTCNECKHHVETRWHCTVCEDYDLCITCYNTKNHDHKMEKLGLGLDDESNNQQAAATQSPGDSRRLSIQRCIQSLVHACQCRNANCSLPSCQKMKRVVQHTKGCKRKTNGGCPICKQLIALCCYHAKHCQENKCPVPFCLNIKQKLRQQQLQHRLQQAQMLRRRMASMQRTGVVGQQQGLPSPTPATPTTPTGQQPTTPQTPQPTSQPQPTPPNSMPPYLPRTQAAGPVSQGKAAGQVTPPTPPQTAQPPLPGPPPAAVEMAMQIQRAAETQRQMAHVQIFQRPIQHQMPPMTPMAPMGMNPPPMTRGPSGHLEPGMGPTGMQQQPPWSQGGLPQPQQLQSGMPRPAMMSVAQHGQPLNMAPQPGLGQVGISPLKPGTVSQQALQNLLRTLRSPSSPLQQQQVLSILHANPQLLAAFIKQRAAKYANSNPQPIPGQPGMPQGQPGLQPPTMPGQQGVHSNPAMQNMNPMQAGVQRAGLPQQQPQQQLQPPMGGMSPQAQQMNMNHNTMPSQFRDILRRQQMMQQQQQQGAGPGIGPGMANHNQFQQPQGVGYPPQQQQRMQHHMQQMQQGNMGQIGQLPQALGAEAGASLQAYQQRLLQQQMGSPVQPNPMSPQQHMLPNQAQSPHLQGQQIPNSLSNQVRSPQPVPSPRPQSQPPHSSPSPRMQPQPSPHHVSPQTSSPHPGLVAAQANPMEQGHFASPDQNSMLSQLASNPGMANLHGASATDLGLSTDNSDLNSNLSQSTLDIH

NS(=O)(=O)c1ccc(CCNC(C(=O)c2c[nH]c3ccncc23)c2ccccc2)cc1 (racemic) [Example 31, (rac)-4-(2-((2-oxo-1-phenyl-2-(1H-pyrrolo[3,2-c]pyridin-3-yl)ethyl)amino)ethyl) benzenesulfonamide]
IC50 (full length p300): 10600 nM | IC50 [1]: 33900 nM

COc1ccccc1CCNC(C(=O)c1c[nH]c2ccccc12)c1ccccc1 (single isomer, unassigned) [6 Isomer 2]
IC50 (full length p300): 82 nM | IC50 [1]: 1830 nM

COc1cccc(CCNC(C(=O)c2c[nH]c3ccccc23)c2ccccc2)c1 (single isomer, unassigned) [7 Isomer 2]
IC50 (full length p300): 269 nM | IC50 [1]: 5140 nM

COc1ccc(CCNC(C(=O)c2c[nH]c3ccccc23)c2ccccc2)cc1 (single isomer, unassigned) [8 Isomer 2]
IC50 (full length p300): 27.7 nM | IC50 [1]: 873 nM

O=C(c1c[nH]c2ccccc12)C(NCCc1ccccn1)c1ccccc1 (single isomer, unassigned) [9 Isomer 1]
IC50 (full length p300): 25900 nM | IC50 [1]: > 60000 nM

O=C(c1c[nH]c2ccccc12)C(NCCc1ccccn1)c1ccccc1 (single isomer, unassigned) [9 Isomer 2]
IC50 (full length p300): 728 nM | IC50 [1]: 33200 nM

O=C(c1c[nH]c2ccccc12)C(NCCc1cccnc1)c1ccccc1 (single isomer, unassigned) [10 Isomer 1]
IC50 (full length p300): 630 nM | IC50 [1]: 21200 nM

O=C(c1c[nH]c2ccccc12)C(NCCc1cccnc1)c1ccccc1 (single isomer, unassigned) [10 Isomer 2]
IC50 (full length p300): 711 nM | IC50 [1]: 19200 nM

O=C(c1c[nH]c2ccccc12)C(NCCc1ccncc1)c1ccccc1 (single isomer, unassigned) [11 Isomer 1]
IC50 (full length p300): 204 nM | IC50 [1]: 9940 nM

O=C(c1c[nH]c2ccccc12)C(NCCc1ccncc1)c1ccccc1 (single isomer, unassigned) [11 Isomer 2]
IC50 (full length p300): 197 nM | IC50 [1]: 7150 nM

NS(=O)(=O)c1ccc(CCNC(C(=O)c2c[nH]c3cccc(Cl)c23)c2ccccc2)cc1 (single isomer, unassigned) [12 Isomer 1]
IC50 (full length p300): 8500 nM | IC50 [1]: > 60000 nM

NS(=O)(=O)c1ccc(CCNC(C(=O)c2c[nH]c3cccc(Cl)c23)c2ccccc2)cc1 (single isomer, unassigned) [12 Isomer 2]
IC50 (full length p300): 3940 nM | IC50 [1]: > 60000 nM

NS(=O)(=O)c1ccc(CCNC(C(=O)c2c[nH]c3cc(Cl)ccc23)c2ccccc2)cc1 (single isomer, unassigned) [13 Isomer 1]
IC50 (full length p300): 472 nM | IC50 [1]: 18100 nM

NS(=O)(=O)c1ccc(CCNC(C(=O)c2c[nH]c3cc(Cl)ccc23)c2ccccc2)cc1 (single isomer, unassigned) [13 Isomer 2]
IC50 (full length p300): 144 nM | IC50 [1]: 1620 nM

NS(=O)(=O)c1ccc(CCNC(C(=O)c2c[nH]c3ccc(Cl)cc23)c2ccccc2)cc1 (single isomer, unassigned) [14 Isomer 1]
IC50 (full length p300): 9540 nM | IC50 [1]: > 60000 nM

NS(=O)(=O)c1ccc(CCNC(C(=O)c2c[nH]c3ccc(Cl)cc23)c2ccccc2)cc1 (single isomer, unassigned) [14 Isomer 2]
IC50 (full length p300): 1860 nM | IC50 [1]: 47400 nM

Cc1[nH]c2ccccc2c1C(=O)C(NCCc1ccc(S(N)(=O)=O)cc1)c1ccccc1 (single isomer, unassigned) [16 Isomer 2]
IC50 (full length p300): 378 nM | IC50 [1]: 6980 nM

COc1ccc(CCNC(C(=O)c2c[nH]c3c(CCC(=O)N(C)C)cccc23)c2ccccc2)cc1 (single isomer, unassigned) [29 Isomer 1]
IC50 (full length p300): 91.1 nM | IC50 [1]: 2190 nM

COc1ccc(CCNC(C(=O)c2c[nH]c3c(CCC(=O)N(C)C)cccc23)c2ccccc2)cc1 (single isomer, unassigned) [29 Isomer 2]
IC50 (full length p300): 220 nM | IC50 [1]: 6600 nM

NS(=O)(=O)c1ccc(CCNC(C(=O)c2c[nH]c3cnccc23)c2ccccc2)cc1 (single isomer, unassigned) [32 Isomer 2]
IC50 (full length p300): 744 nM | IC50 [1]: 12900 nM

NS(=O)(=O)c1ccc(CCNC(C(=O)c2c[nH]c3ncccc23)c2ccccc2)cc1 (single isomer, unassigned) [33 Isomer 1]
IC50 (full length p300): 1750 nM | IC50 [1]: > 60000 nM

NS(=O)(=O)c1ccc(CCNC(C(=O)c2c[nH]c3ncccc23)c2ccccc2)cc1 (single isomer, unassigned) [33 Isomer 2]
IC50 (full length p300): 554 nM | IC50 [1]: 10000 nM

Cc1nc(C(=O)C(NCCc2ccc(Cl)cc2)c2ccccc2)c2ccccn12 (single isomer, unassigned) [45 Isomer 2]
IC50 (full length p300): 1350 nM | IC50 [1]: 39800 nM

O=C(c1cnc2ccccn12)C(NCCc1ccc(Cl)cc1)c1ccccc1 (single isomer, unassigned) [46 Isomer 1]
IC50 (full length p300): 13100 nM | IC50 [1]: 9000 nM

O=C(c1n[nH]c2ccccc12)C(NCCc1ccc(Cl)cc1)c1ccccc1 (single isomer, unassigned) [47 Isomer 1]
IC50 (full length p300): 1310 nM | IC50 [1]: 4800 nM

O=C(c1n[nH]c2ccccc12)C(NCCc1ccc(Cl)cc1)c1ccccc1 (single isomer, unassigned) [47 Isomer 2]
IC50 (full length p300): 1300 nM | IC50 [1]: 20300 nM

CNC(=O)Cc1ccc2c(C(=O)C(NCCc3ccc(C#N)cc3)c3ccccc3)c[nH]c2c1 (single isomer, unassigned) [62 Isomer 1]
IC50 (full length p300): 37.2 nM | IC50 [1]: 501 nM

CNC(=O)Cc1ccc2c(C(=O)C(NCCc3ccc(C#N)cc3)c3ccccc3)c[nH]c2c1 (single isomer, unassigned) [62 Isomer 2]
IC50 (full length p300): 51.3 nM | IC50 [1]: 3340 nM

CN(C)C(=O)Cc1ccc2c(C(=O)C(NCCc3ccc(C#N)cc3)c3ccccc3)c[nH]c2c1 (single isomer, unassigned) [63 Isomer 2]
IC50 (full length p300): 46.2 nM | IC50 [1]: 2500 nM

O=C(c1c[nH]c2cc(-c3ccccn3)ccc12)C(NCCc1ccc(F)cc1)c1ccccc1 (single isomer, unassigned) [105 Isomer 2]
IC50 (full length p300): 25.1 nM | IC50 [1]: 1380 nM

CN(C)C(=O)c1ccc(CCNC(C(=O)c2c[nH]c3ccccc23)c2ccccc2)cc1 (single isomer, unassigned) [135 Isomer 2]
IC50 (full length p300): 819 nM | IC50 [1]: 28800 nM

Cn1cc(-c2ccc3c(C(=O)C(NCCc4ccc(C(=O)O)cc4)c4ccccc4)c[nH]c3c2)cn1 (single isomer, unassigned) [138 Isomer 1]
IC50 (full length p300): 30 nM | IC50 [1]: 442 nM

COc1ccc(CCN[C@H](C(=O)c2c[nH]c3c(C(C)C)cccc23)c2ccccc2)cc1 (single isomer, unassigned) [145 Isomer 1]
IC50 (full length p300): 593 nM | IC50 [1]: 18500 nM

CNC(=O)c1cccc2c(C(=O)C(NCCc3ccc(Cl)cc3Cl)c3ccccc3)c[nH]c12 (single isomer, unassigned) [147 Isomer 2]
IC50 (full length p300): 336 nM | IC50 [1]: 4910 nM

CN(C)C(=O)c1cccc2c(C(=O)C(NCCc3ccc(Cl)cc3Cl)c3ccccc3)c[nH]c12 (single isomer, unassigned) [148 Isomer 2]
IC50 (full length p300): 355 nM | IC50 [1]: 8050 nM

CN(C)CCNC(=O)c1cccc2c(C(=O)C(NCCc3ccc(Cl)cc3Cl)c3ccccc3)c[nH]c12 (single isomer, unassigned) [149 Isomer 1]
IC50 (full length p300): 223 nM | IC50 [1]: 5920 nM

COCCNC(=O)c1cccc2c(C(=O)C(NCCc3ccc(Cl)cc3Cl)c3ccccc3)c[nH]c12 (single isomer, unassigned) [150 Isomer 1]
IC50 (full length p300): 393 nM | IC50 [1]: 7970 nM

CN(C)CCNC(=O)c1ccc2c(C(=O)C(NCCc3ccc(Cl)cc3Cl)c3ccccc3)c[nH]c2c1 (single isomer, unassigned) [153 Isomer 1]
IC50 (full length p300): 7.84 nM | IC50 [1]: 345 nM

CN(C)CCNC(=O)c1ccc2c(C(=O)C(NCCc3ccc(Cl)cc3Cl)c3ccccc3)c[nH]c2c1 (single isomer, unassigned) [153 Isomer 2]
IC50 (full length p300): 5.72 nM | IC50 [1]: 79.8 nM

COCCNC(=O)c1ccc2c(C(=O)C(NCCc3ccc(Cl)cc3Cl)c3ccccc3)c[nH]c2c1 (single isomer, unassigned) [154 Isomer 1]
IC50 (full length p300): 37.7 nM | IC50 [1]: 325 nM

COCCNC(=O)c1ccc2c(C(=O)C(NCCc3ccc(Cl)cc3Cl)c3ccccc3)c[nH]c2c1 (single isomer, unassigned) [154 Isomer 2]
IC50 (full length p300): 8.95 nM | IC50 [1]: 1620 nM

N#Cc1ccc(CCNC(C(=O)c2c[nH]c3cc(C(=O)O)ccc23)c2ccccc2)cc1 (single isomer, unassigned) [155 Isomer 2]
IC50 (full length p300): 285 nM | IC50 [1]: 4090 nM

CNC(=O)c1ccc2c(C(=O)C(NCCc3ccc(C#N)cc3)c3ccccc3)c[nH]c2c1 (single isomer, unassigned) [156 Isomer 1]
IC50 (full length p300): 29.1 nM | IC50 [1]: 584 nM

O=C(O)CCc1ccc2c(C(=O)C(NCCc3ccc(F)cc3)c3ccccc3)c[nH]c2c1 (single isomer, unassigned) [159 Isomer 2]
IC50 (full length p300): 274 nM | IC50 [1]: 5900 nM

N#Cc1ccc(CCNC(C(=O)c2c[nH]c3cc(C(=O)NCCN4CCCC4=O)ccc23)c2ccccc2)cc1 (single isomer, unassigned) [164 Isomer 1]
IC50 (full length p300): 190 nM | IC50 [1]: 3660 nM

N#Cc1ccc(CCNC(C(=O)c2c[nH]c3cc(C(=O)NCCN4CCCC4=O)ccc23)c2ccccc2)cc1 (single isomer, unassigned) [164 Isomer 2]
IC50 (full length p300): 6.03 nM | IC50 [1]: 140 nM
